Test results taken from ChEMBL document CHEMBL1201862, “PubChem BioAssay data set” (2004).
Structures can show the parent of a compound that is named as a salt. Each block holds one compound with its values, some of them ahead of it. Active and inactive are the calls of the source.

Legend:
[1] = HEp-2 cell cytotoxicity, dose response, cytotoxicity control for RSV inhibitor project, HTS (AID 2410); format: functional; conditions: human respiratory syncytial virus
Cytochrome P450 3A4 = Cytochrome P450 3A4 (Homo sapiens, UniProt P08684);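 further: CYP3A4 tested as one member of a cytochrome P450 panel screen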
Cytochrome P450 2C9 = Cytochrome P450 2C9 (Homo sapiens, UniProt P11712)
Cytochrome P450 2C19 = Cytochrome P450 2C19 (Homo sapiens, UniProt P33261); test: Cytochrome panel assay with activity outcomes. Panel member name: p450-cyp2c19 Compounds with AC50 equal or less than 10 uM are considered active; format: functional
Cytochrome P450 1A2 = biological target: T1, Cytochrome P450 1A2 (Homo sapiens, UniProt P05177);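 further: PubChem cytochrome P450 panel assay, CYP1A2 panel member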
T1 sequence (P05177 whole entry): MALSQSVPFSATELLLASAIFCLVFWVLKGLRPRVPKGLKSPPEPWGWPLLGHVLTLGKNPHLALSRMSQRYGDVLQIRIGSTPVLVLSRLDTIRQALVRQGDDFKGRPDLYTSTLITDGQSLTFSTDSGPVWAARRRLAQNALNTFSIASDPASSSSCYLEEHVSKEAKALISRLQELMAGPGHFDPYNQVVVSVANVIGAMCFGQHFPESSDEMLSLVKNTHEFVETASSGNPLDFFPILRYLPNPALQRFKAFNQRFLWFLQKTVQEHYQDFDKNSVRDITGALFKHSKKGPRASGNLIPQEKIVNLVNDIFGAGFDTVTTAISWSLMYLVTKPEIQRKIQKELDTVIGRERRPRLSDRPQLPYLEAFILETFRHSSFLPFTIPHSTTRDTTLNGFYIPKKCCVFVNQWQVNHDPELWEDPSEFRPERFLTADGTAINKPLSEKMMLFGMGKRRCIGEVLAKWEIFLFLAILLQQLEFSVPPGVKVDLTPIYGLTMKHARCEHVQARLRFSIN

[2] = biological target: T2, Heat shock factor protein 1 (Mus musculus, UniProt P38532); test: inhibition of MG132-induced HSE-luciferase signal, confirmation, cell-based, NIH3T3, luminescence, dose retest (AID 2382); format: functional;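 further: NIH3T3 fibroblasts with HSF1-driven luciferase reporter stressed by proteasome inhibitor MG132; luminescence from HSF1-driven luciferase expression after 8 hours of MG132 stress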
T2 sequence (P38532 whole entry): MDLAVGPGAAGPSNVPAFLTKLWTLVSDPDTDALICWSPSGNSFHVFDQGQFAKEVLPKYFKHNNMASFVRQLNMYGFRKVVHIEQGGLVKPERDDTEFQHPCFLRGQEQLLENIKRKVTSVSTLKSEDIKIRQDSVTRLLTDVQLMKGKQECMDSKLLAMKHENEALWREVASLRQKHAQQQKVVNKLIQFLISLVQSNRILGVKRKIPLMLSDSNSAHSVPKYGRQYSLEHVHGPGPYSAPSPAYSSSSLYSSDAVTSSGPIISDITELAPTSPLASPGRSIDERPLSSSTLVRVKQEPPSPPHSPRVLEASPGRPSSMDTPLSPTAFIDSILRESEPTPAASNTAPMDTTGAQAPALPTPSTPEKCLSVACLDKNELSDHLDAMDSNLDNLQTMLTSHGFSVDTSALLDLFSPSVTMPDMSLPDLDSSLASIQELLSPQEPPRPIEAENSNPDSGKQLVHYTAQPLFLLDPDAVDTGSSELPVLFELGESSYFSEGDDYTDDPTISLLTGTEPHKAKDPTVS

[3] = inhibitors of intracellular T. cruzi replication, confirmation, NIH3T3 host cells, beta-gal luminescence (AID 2044); format: functional, cell-based;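 further: intracellular parasites grown in NIH/3T3 mouse fibroblasts as host cells; luminescent beta-galactosidase reporter signal from transgenic T. cruzi replicating inside host cells; inhibitors lower the luminescence signal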
[4] = cytotoxicity toward NIH3T3 fibroblasts, dose response, counter-screen, cell-based, ATP luminescence, mouse fibroblasts (AID 2010); format: functional;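 further: cells exposed to compound for about 90 hours before reading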
[5] = biological target: T3, Rac GTPase-activating protein 1 (Homo sapiens, UniProt Q9H0H5); test: MgcRacGAP GTPase-activating activity inhibitors, confirmation, biochemical, ADP Hunter fluorescence, primary and confirmatory (AID 624330); format: functional
T3 sequence (Q9H0H5 whole entry): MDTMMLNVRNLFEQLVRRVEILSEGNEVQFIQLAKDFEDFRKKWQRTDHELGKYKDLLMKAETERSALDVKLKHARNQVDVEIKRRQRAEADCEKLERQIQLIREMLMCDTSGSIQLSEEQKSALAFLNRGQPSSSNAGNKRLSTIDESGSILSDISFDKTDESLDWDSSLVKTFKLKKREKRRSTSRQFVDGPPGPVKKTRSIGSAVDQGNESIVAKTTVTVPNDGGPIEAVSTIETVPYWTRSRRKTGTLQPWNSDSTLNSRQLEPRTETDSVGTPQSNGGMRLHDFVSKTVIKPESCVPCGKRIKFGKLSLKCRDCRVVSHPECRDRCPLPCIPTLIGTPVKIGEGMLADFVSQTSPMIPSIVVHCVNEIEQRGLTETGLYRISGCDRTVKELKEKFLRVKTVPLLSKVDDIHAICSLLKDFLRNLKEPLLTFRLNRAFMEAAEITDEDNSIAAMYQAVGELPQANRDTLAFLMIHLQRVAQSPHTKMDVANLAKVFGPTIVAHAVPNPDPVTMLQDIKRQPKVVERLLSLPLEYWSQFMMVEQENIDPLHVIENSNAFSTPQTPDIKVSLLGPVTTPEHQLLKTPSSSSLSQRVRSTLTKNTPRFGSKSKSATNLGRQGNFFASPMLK

[6] = system: Streptococcus sp. 'group A'; test: growth inhibition of control SK(-) GAS strain, dose response, counter-screen for streptokinase expression inhibitor project, luminescence, kanamycin, BacTiterGlo, confirmation (AID 1900); format: functional, organism-based
Streptococcus = test: Group A Streptococcus viability loss, dose response, counter-screen for streptokinase expression inhibitor project, luminescence, BacTiterGlo (AID 1915); format: functional, organism-based;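 further: potency for reduction of bacterial viability or growth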

Cytochrome P450 3A4, sequence (P08684 whole entry): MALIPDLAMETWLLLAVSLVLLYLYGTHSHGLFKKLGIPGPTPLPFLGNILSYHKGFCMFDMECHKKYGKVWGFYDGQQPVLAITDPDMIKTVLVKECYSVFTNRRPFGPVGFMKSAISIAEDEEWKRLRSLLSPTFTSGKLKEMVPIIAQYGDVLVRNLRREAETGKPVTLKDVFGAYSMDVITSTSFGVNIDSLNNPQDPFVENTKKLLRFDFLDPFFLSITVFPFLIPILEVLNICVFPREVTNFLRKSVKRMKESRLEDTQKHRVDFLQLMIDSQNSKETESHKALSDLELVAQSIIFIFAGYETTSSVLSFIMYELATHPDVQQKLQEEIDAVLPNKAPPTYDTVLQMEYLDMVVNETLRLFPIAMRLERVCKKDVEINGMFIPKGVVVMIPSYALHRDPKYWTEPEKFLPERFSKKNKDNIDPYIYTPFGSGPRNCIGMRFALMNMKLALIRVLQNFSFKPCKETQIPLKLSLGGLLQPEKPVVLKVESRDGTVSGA
Cytochrome P450 2C19, sequence (P33261 whole entry): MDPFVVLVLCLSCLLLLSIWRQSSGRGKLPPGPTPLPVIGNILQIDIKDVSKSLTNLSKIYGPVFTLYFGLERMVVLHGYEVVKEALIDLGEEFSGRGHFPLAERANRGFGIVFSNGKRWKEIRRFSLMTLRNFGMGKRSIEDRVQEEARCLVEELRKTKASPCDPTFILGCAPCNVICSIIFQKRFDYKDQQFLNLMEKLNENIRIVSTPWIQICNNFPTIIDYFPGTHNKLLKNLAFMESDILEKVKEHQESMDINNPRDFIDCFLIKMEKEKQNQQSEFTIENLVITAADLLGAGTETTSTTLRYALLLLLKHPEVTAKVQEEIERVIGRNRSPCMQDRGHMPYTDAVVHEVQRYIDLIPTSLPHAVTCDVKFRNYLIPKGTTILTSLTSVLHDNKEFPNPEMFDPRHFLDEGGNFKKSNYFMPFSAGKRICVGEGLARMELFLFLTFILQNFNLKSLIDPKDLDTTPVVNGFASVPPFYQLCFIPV
Cytochrome P450 2C9, sequence (P11712 whole entry): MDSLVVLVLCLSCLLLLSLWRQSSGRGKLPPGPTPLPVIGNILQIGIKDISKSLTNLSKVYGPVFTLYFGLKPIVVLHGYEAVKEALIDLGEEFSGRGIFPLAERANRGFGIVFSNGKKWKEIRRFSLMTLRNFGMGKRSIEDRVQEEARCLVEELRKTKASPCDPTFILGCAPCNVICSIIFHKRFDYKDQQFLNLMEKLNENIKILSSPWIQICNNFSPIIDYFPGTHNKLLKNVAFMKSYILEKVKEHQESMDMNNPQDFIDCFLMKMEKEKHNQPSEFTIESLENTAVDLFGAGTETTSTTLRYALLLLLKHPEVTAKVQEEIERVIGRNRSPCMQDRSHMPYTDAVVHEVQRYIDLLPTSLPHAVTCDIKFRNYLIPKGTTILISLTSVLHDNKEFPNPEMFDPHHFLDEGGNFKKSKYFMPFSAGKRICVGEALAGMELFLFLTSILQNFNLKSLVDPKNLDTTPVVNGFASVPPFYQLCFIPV

Compound: O=C(c1ccc(F)cc1)N1CCN(c2cc(N3CCCCC3)c(F)cc2[N+](=O)[O-])CC1
CC50 [1]: 16.6 µM (active)

Compound: O=C(OCc1ccccc1)/C(=C/c1ccc(Cl)cc1)NC(=O)c1ccccc1Cl
AC50 (Cytochrome P450 2C19; read-out: AC50): 0.316 µM (inconclusive)
AC50 (Cytochrome P450 2C9): 1.58 µM (inconclusive)

Compound: COc1ccc(-c2nc3cnc(N4CCOCC4)nc3n(-c3ccc(OC)cc3)c2=O)cc1
AC50 (Cytochrome P450 1A2): 10 µM (inconclusive)

Compound: Oc1ccc(-c2nccc(-c3ccc(Cl)cc3Cl)n2)cc1
EC50 [3]: 1.62 µM (active)
EC50 [4]: > 60 µM (not active)

Compound: CN1CCN(S(=O)(=O)c2cnccc2N2CCN(c3cccc(Cl)c3)CC2)CC1
EC50 [3]: 1 µM (active)
EC50 [4]: > 60 µM (inconclusive)

Compound: COc1cc(OC)c(C(=O)Nc2ccc(N(C)C)cc2)cc1OC
IC50 [5]: 22.1 µM (active)

Compound: COc1nc(-c2ccc(C)cc2)ccc1-c1noc(-c2cccnc2)n1
CC50 [1]: 31.1 µM (active)

Compound: CC(C)CCNC(=O)C(c1cccnc1)N(Cc1ccccc1)C(=O)Cn1nnc2ccccc21 (stereo not drawn)
EC50 [3]: 0.959 µM (active)
EC50 [4]: > 30 µM (not active)

Compound: CCN(CC)C(=O)c1sc2[nH]c(=S)n(-c3ccccc3)c(=O)c2c1C
AC50 (Cytochrome P450 2C19): inconclusive
AC50 (Cytochrome P450 2C9): 8.91 µM (inconclusive)

Compound: N[C@@H](Cn1cc(I)c(=O)n(Cc2ccc(C(=O)O)cc2)c1=O)C(=O)O
AC50 (Cytochrome P450 2C19; read-out: AC50): 39.8 µM (inconclusive)
AC50 (Cytochrome P450 1A2): 31.6 µM (inconclusive)

Compound: COc1ccc(NC(C)C(=O)N/N=C/c2c(O)ccc3ccccc23)cc1 (stereo not drawn)
EC50 [6]: 1.95 µM (active)
EC50 (Streptococcus): 1.25 µM (active)

Compound: COc1cc(/C(C)=N/N2CCN(c3ccccc3OC)CC2)ccc1O
IC50 [5]: 208 µM (active)

Compound: CCn1c(=O)[nH]c2ccccc21
AC50 (Cytochrome P450 1A2): 31.6 µM (inconclusive)

Compound: Cc1ccsc1/C=C/C1=NCCCN1C [MORANTEL TARTRATE]
EC50 [2]: > 195 µM (not active)

Compound: CCCCCCCCCCCCCCSCC(=O)O [TETRADECYLTHIOACETIC ACID]
AC50 (Cytochrome P450 2C9): 39.8 µM (inconclusive)

Now from value to compound:

AC50 (Cytochrome P450 3A4): 14.1 µM (inconclusive)
AC50 (Cytochrome P450 2C9): 10 µM (inconclusive)
Compound: CCC(C(=O)N1CCOCC1)n1c(C(=O)OC)cc2occc21 (stereo not drawn)

EC50 [2]: > 195 µM (not active)
Compound: CC(C)(C)Cc1nnc(NS(=O)(=O)c2ccc(F)cc2)s1

IC50 [5]: 123 µM (active)
Compound: O=C(CNC1CC1)Nc1cc(C(F)(F)F)ccc1Cl

EC50 [2]: > 195 µM (not active)
Compound: COc1ccc(C2NS(=O)(=O)N=C2N)cc1 (stereo not drawn)

EC50 [2]: 14.7 µM (active)
Compound: Cc1ccc(C(=O)Nc2ccc(C(=O)O)cc2NC(=O)c2ccc(C)cc2)cc1

EC50 [2]: > 195 µM (not active)
Compound: COC(=O)C1=C(C)N(CCCC(=O)O)C(=O)NC1c1ccc(C#N)cc1 (stereo not drawn)

AC50 (Cytochrome P450 1A2): 14.1 µM (inconclusive)
AC50 (Cytochrome P450 3A4): 25.1 µM (inconclusive)
AC50 (Cytochrome P450 2C9): 0.0398 µM (inconclusive)
Compound: Cc1ccccc1C(=O)NC(NCc1ccco1)C(Cl)(Cl)Cl (stereo not drawn)

IC50 [5]: 39.7 µM (active)
Compound: CC(=O)NC(Cc1ccccc1)C(=O)Oc1ccc2ccccc2c1 (stereo not drawn)

AC50 (Cytochrome P450 2C9): 10 µM (inconclusive)
Compound: CSC(=N)N/N=C/c1ccc([N+](=O)[O-])cc1

IC50 [5]: 29.2 µM (active)
Compound: Cc1cccc(N2CCC(/N=C/N(C)C)=N2)c1

AC50 (Cytochrome P450 1A2): 14.1 µM (inconclusive)
AC50 (Cytochrome P450 3A4): 12.6 µM (inconclusive)
Compound: O=C(CC(=O)N/N=C\c1c(Cl)cccc1Cl)NCc1ccccc1

IC50 [5]: 31.7 µM (active)
Compound: Cn1c(=O)[nH]c(=O)c2c1[nH]c(=S)n2Cc1ccc(Cl)cc1
